Assay results taken from patent US20080026076A1 (priority 2003, published 2008).
Entries after “also recorded” stand apart in the source; their conditions may differ. Marks after values point to notes of the source that are not given here.

Experiments:
[1] = system: rats with abdominal aortic constriction (AAC) or sham operated; test: Post-sacrifice morphometric measurements (body, heart and organ weights, heart rate) to assess cardiac hypertrophy; assay type: in vivo, rat; details: for Heart wt.: quercetin diet, mean ± SEM
From the text: In this procedure the abdominal aorta is constricted to increase the afterload on the heart and produce pressure overload. […] Rats consumed this diet for 7 days.
On the 8th day, 5 rats were surgically modeled for pressure overload by constricting the abdominal aorta to a diameter of 0.63 mm with a Weck hemoclip. The other 5 rats were sham operated (anesthetized and the aorta exposed, but not constricted). […] Another group of 10 rats were placed on a standard diet with no supplement and treated in an identical fashion with 5 surgically modeled for pressure overload and 5 sham operated. […] Two weeks after surgery post-sacrifice morphometric measurements are obtained by measuring total heart weight, left ventricle weight, and calculating heart:body weight and left ventricle:body weight ratios to assess cardiac mass and cardiac hypertrophy.
Post-sacrifice morphometric measurements are obtained by measuring body weight, total heart weight, calculating heart:body weight ratios and heart rate to assess cardiac mass and cardiac hypertrophy.

[2] = system: mice with surgically induced abdominal aortic constriction; details: oral, 5 day, 120 mg/kg/day (Wang et al., 1999); cited from earlier work
[3] = system: 8-isoprostane F2α; test: Urinary 8-isoprostane F2α, enzyme-linked immunoassay; assay type: in vivo, human; details: for Urinary Isoprostane, Endpoint: end of quercetin phase
Method: During each patient visit whole blood (˜50 μL) was obtained from a digit puncture to determine blood lipids (LDL, VLDL, HDL, total cholesterol) and glucose using a clinical Cholestech LDX blood analyzer (37). Prior to each patient visit, first morning urine was collected, brought to the laboratory, and stored at −80° C. for later analysis of isoprostane concentrations. Urine 8-isoprostane F2α is a measure of lipid peroxidation and can be used to estimate oxidative stress in humans (45-47). Quantification of 8-isoprostane F2α (also known as 8-epi-PGF2α or 8-iso-PGF2α) in urine samples was performed using a competitive enzyme-linked immunoassay kit (Cayman Chemical, Ann Arbor, Mich.) according to the manufacturers instructions.

[4] = system: NE precontracted aortic segments; test: Vascular reactivity in segments of aorta, wire-type myograph; assay type: in vivo, rat
Method: Animals are anesthetized, the heart and aorta excised, and vascular reactivity is assessed in segments of aorta using a wire-type myograph.

[5] = system: normotensive individuals; details: 1000 mg/day of quercetin for one month (Conquer et al.); cited from earlier work
[6] = system: Akt; test: Akt signaling status in left ventricle, immunoblot; assay type: in vivo, rat; details: AAC rats fed supplemental quercetin
Method: Determination of ERK1/2 and Akt signaling status (FIGS. 4A & 4B). All extraction procedures were performed at 4° C. […] After homogenization, the samples were sonicated twice on ice and centrifuged at 11,000×g for 10 min. at 4° C. Supernatants were recovered and stored at −80° C. for subsequent immunoblotting. Protein concentration of whole heart cell lysate was determined using a Bio-Rad Protein assay (Bio-Rad, Hercules, Calif.) with bovine serum albumin (BSA) as a standard.

[7] = Ferric reducing antioxidant power (FRAP) of plasma; assay type: in vivo, human; details: for FRAP, Endpoint: end of quercetin phase
Method: Blood samples were collected after blood pressure was measured. Blood was collected by antecubital venipuncture from fasting subjects into sodium heparin tubes (Becton Dickinson, N.J., USA). Collected blood was immediately stored on ice and centrifuged within 10 minutes at 4° C. for 15 minutes at 2500 g as previously described (36).
FRAP measures the ability of an antioxidant to reduce Fe^3+ to Fe^2+ (40), and is an index of plasma antioxidant potential in hypertensive patients (41-44). This assay was done as previously described (39). Briefly, plasma samples were diluted 1:2 with phosphate buffered saline, followed by addition of a reagent solution containing 0.8 mmol/L 2,4,6-tri-(2-pyridyl)-s-tirazine and 1.7 mmol/l FeCl3.6-H2O. Samples were then incubated at 37° C. for 15 min and the absorbance at 593 nm was recorded in a plate reader (Molecular Devices, Spectramax 340 pc).

[8] = Trial: fasting blood lipids and glucose (Cholestech LDX); assay type: in vivo, human; details: after quercetin supplementation compared to placebo (data not shown)
Method: During each patient visit whole blood (˜50 μL) was obtained from a digit puncture to determine blood lipids (LDL, VLDL, HDL, total cholesterol) and glucose using a clinical Cholestech LDX blood analyzer (37). Prior to each patient visit, first morning urine was collected, brought to the laboratory, and stored at −80° C. for later analysis of isoprostane concentrations.

[9] = Plasma antioxidant reserve (PAR); assay type: in vivo, human; details: for PAR, Endpoint: end of quercetin phase
Method: Blood samples were collected after blood pressure was measured. Blood was collected by antecubital venipuncture from fasting subjects into sodium heparin tubes (Becton Dickinson, N.J., USA). Collected blood was immediately stored on ice and centrifuged within 10 minutes at 4° C. for 15 minutes at 2500 g as previously described (36). […] Ex-vivo amplification of isoprostanes was accomplished by introducing a source of free radicals (3-morpholinosydnonimine, SIN-1) into the blood plasma to induce oxidation of lipoproteins (39). Uric acid, a major water soluble antioxidant present in plasma, was removed using uricase prior to introduction of SIN-1 so that any protection provided by other antioxidants could be measured. Therefore, PAR measures the non-urate antioxidant capacity, or antioxidant power, of blood.

[10] = system: spontaneously hypertensive rats; test: Blood pressure in spontaneously hypertensive (SH) rats; assay type: in vivo, rat
Method: As described herein, this strain is well documented to have normal blood pressure until about 5-6 weeks of age (Makita and Yasuda, 1990). After about 5-6 weeks, the rats suffer from steadily increasing blood pressure from about 6 weeks of age until peaking at about 12-15 weeks of age.
Blood pressure was measured in SHR and SHRQ rats by lightly anesthetizing the animals using ketamine/xylazine (75/3.75 mg/kg i.p.). Rats were prewarmed for 15 minutes on heated platform and blood pressure was measured using a Visitech BP 2000 blood pressure system. Pressure measurements are reported as the average of between 4 and 8 separate measurements taken over a 70 second period. All rats fully recovered within […] after receiving anesthesia.
Blood pressure blood pressure was measured for each group at 6, 7.5, 9 and 10 weeks. Dietary supplement was initiated at 5 weeks and maintained throughout the experiment.
In a separate experiment using SH rats (dietary supplement was likewise initiated at 5 weeks), blood pressure was measured at 17 weeks.

[11] = both groups of hypertensive subjects
[12] = sham-operated Q-fed animals (n=10)
[13] = 1.5 g/kg chow quercetin from 5 weeks of age, measured at 6 to 10 weeks, vs control diet

O=c1c(O)c(-c2ccc(O)c(O)c2)oc2cc(O)cc(O)c12 [quercetin, 3,5,7,3′,4′-pentahydroxyflavone]
Heart wt. ([1]; AAC + Q (n = 9)): 1.18 ± 0.03^b g
cardiac hypertrophy ([1]; AAC-Q rats compared with AAC and sham rats, two weeks after surgery): lower level of cardiac hypertrophy; also recorded: levels of hypertrophy in between S and AAC rats
Heart wt. ([1]; Sham + Q (n = 10)): 1.01 ± 0.03^a g
cardiac hypertrophy [2]: prevented cardiac hypertrophy
fasting urinary 8-isoprostane F2α concentration, quercetin supplementation vs. placebo [3, 11]: not altered
Urinary Isoprostane, Endpoint ([3]; prehypertensive (n=10), baseline 518 ± 55): 520 ± 75 ng/g creatine
Urinary Isoprostane, Endpoint ([3]; stage 1 hypertensive (n=8), baseline 822 ± 249): 549 ± 59 ng/g creatine
maximal ACh-evoked relaxation ([4]; AAC-Q rats (n=9), untreated AAC 30±3): 44±3%
SNP-evoked relaxation ([4]; AAC-Q rats (n=9), untreated AAC 56±3): 71±4%
SNP-evoked relaxation [4, 12]: 71±5%
maximal ACh-evoked relaxation [4, 12]: 38±4%
blood pressure [5]: no changes in blood pressure
plasma quercetin concentrations [5]: 427 ± 89 ng/mL
activation of Akt [6]: prevented
fasting plasma FRAP, quercetin supplementation vs. placebo [7, 11]: not altered
FRAP, Endpoint ([7]; prehypertensive (n=10), baseline 1080 ± 48): 1106 ± 61 µmol/L
FRAP, Endpoint ([7]; stage 1 hypertensive (n=8), baseline 1056 ± 59): 1152 ± 69 µmol/L
Fasting blood glucose levels [8]: unchanged
fasting plasma PAR, quercetin supplementation vs. placebo [9, 11]: not altered
PAR, Endpoint ([9]; prehypertensive (n=10), baseline 279 ± 48): 266 ± 32 pg/mL
PAR, Endpoint ([9]; stage 1 hypertensive (n=8), baseline 258 ± 55): 281 ± 74 pg/mL
onset of hypertension ([10]; 1.5 g quercetin/kg diet from 5 weeks of age): delayed the onset of hypertension
diastolic pressure [10, 13]: did not show a statistically significant changed
mean arterial pressure [10, 13]: did not show a statistically significant changed
systolic blood pressure [10, 13]: decreased systolic blood pressure
blood pressure at 17 weeks ([10]; separate experiment, supplement from 5 weeks, control vs quercetin treated): No significant difference in blood pressure
